From patent US8729034B2, “Pharmaceutical composition having virucidal and spermicidal activity” (priority 2007, dated 2014)

Key:
[1] = test system: Salmonella typhimurium TA100; assay: Bacterial reverse mutation assay (MUTA-CHROMOPLATE kit); settings: Background = 20, Blank = 0
Description: Ac-B was examined for its ability to produce mutations/revert mutations in a bacterial reverse mutation assay using amino acid-requiring strain of Salmonella typhimurium (S. typhimurium) TA100 and the result was compared with a known mutagen (Na-azide). A commercial kit (The MUTA-CHROMOPLATE) from M/s Environmental Biodetection Products Inc. Ontario, Canada, was used. Suspensions of bacterial cells were exposed to the test substance in the presence and in the absence of an exogenous metabolic activation system. After 5 days of incubation, revertant colonies were detected by the change of colour from blue to yellow on solvent control plates. All yellow, partially yellow or turbid wells were scored as positive, while all purple wells were scored as negative. Number of positive wells for each plate was recorded, their number was counted and compared to that of spontaneous revertant colonies. The “Background” (i.e. no test material added) plate was used as reference for the level of spontaneous or background mutation of the assay organism. The statistical difference was determined using a table provided with the kit.
Score of mutagenicity as per the set criteria of Muta-Chromoplate test kit.

human spermatozoa [2] = assay: Sander & Cramer spermicidal assay (in vitro); type: cell-based; settings: Human spermatozoa (N = 5); weakest concentration immobilizing all spermatozoa within 20 seconds
Protocol: (§1) The exudates/liquefied human semen samples were suspended in BWW medium (pre equilibrated at 37 degree C.). The spermatozoa with forward motility were separated from immotile or sluggishly motile cells by the swim-up technique and were allowed to disperse evenly within a CO2 incubator at 37 degree C. At least five aliquots from each sample was used to prepare the working spermatozoa suspension. The swim up procedure was as follows:
(§2) Pre equilibrated BWW medium (1.25 ml) was gently layered over cauda-exudates or liquefied human semen (1 ml) in a sterile 15 ml conical-based centrifuge tube. The tube was inclined at an angle of 45 degree and incubated for 1 hour at 37 degree C. in a CO2-incubator. It was then gently returned to the upright position and the uppermost 1 ml medium with a turbid appearance was removed. This aliquot of motile cells was pooled from each set, then diluted with same volumes of pre equilibrated BWW medium, centrifuged at 500 g for 5 minutes and finally resuspended in 1 ml pre equilibrated BWW medium to obtain a working suspension. The sperm cells were counted in a Makler chamber (Zygotec Systems, Springfield, M A, USA) and finally a working spermatozoa suspension having concentration of 25 to 30×10^6 cells/ml was prepared.
(§3) For in vitro assay of spermicidal effect, sperms collected from proven male rats and mice, and motile spermatozoa from liquefied human semen were used.
(§4) The assay was done following the Sander & Cramer assay method. Two hundred micro liter (200 microliters) of working spermatozoa suspension was added to 1 ml solution of test material in BWW medium and mixed on a light vortex for 10 seconds. A wet mount was immediately prepared on a clean microscopy glass slide and examined (at ×100) under a phase contrast microscope (Leitz, Biomed). The weakest concentration that immobilized all spermatozoa within 20 seconds of mixing was recorded as MEC. At least five fields were examined for each wet mount preparation. The observation was repeated with five individual spermatozoa suspension for each concentration of test compound solution. For negative control, saponin solutions were replaced by equal volume of BWW medium, while Nonoxynol 9 was used as positive control.

rat spermatozoa = assay: Sander & Cramer spermicidal assay (in vitro); type: cell-based; settings: Rat spermatozoa (N = 10); all immobilized within 20 seconds
Protocol: (§5) Sexually mature male mice and rats were autopsied following euthanasia by an overdose of Ketamin (≧200 mg/kg body weight; injected i.p.) and their cauda epididymis were excised. Working suspension of animal spermatozoa was prepared with the exudates obtained after careful pricking of the cauda epididymis with an injection needle (18 G) and the exudates were collected in a conical centrifuge tube.
as §1, §2, §3, §4

mouse spermatozoa = assay: Sander & Cramer spermicidal assay (in vitro); type: cell-based; settings: Mouse spermatozoa (N = 10); all immobilized within 20 seconds
Protocol: as §5, §1, §2, §3, §4

human spermatozoa [3] = settings: cited from earlier work

Compound | No. of '+' wells (Muta-Chromoplate score) [1] | MEC as per Sander and Cramer Test (human spermatozoa [2]) | MEC as per Sander and Cramer Test (rat spermatozoa) | MEC as per Sander and Cramer Test (mouse spermatozoa) | MEC for N-9 (human spermatozoa [3]; closest prior arts) | MEC of N-9 for spermicidal action (human spermatozoa [3]; comparison value in concluding remarks)
[N-]=[N+]=[N-].[Na+] [Na-azide, reference compound] | 74 | – | – | – | – | –
isononyl-phenyl-polyoxyethylene (9) ether [Nonoxynol 9, reference compound] | – | >350 microgram per ml | 350 (±10) microgram per ml | 350 (±10) microgram per ml | 200-500 microgram per ml | 200-500 microgram
